Measurements published in patent publication US9597407B2, “Targeted antimicrobial moieties” (C3 Jian, Inc., priority 2009, dated 2017).
Entries after “also recorded” stand apart in the source; their conditions may differ.

system: bacteria; experiment: Binding of targeting peptides to microorganisms (Table 3); settings: microorganism bound by the targeting peptide; binding in aqueous buffers chosen by peptide solubility, preferably 1x PBS

| Substance | Target(s) |
| --- | --- |
| MKKLVAALAVIVILTGCVYDPVNYDKIHDQEFQDHLRQNG [PF-252] | S. mutans |
| PF-165 (GPVSVVASLRRGTTVQRHSQNNHNKGKP; Peptide with targeting and/or antimicrobial activity) | MRSA and C. jejuni |
| PF-244 (HMRTISYLLAFAKFSLFIPPKQSLKRL; Peptide with targeting and/or antimicrobial activity) | S. epidermidis; also recorded: M. luteus; also recorded: P. aeruginosa; also recorded: A. baumannii |
| AIEGVIKKGACFKLLRHEMF [PF-167] | S. epidermidis and E. coli and C. albicans and MRSA and C. jeikeium and C. jejuni |
| PF-159 (TMAFVEKAQLRVPVGDDLPV; Peptide with targeting and/or antimicrobial activity) | S. epidermidis |
| PF-210 (EREDGCDAMPLP; Peptide with targeting and/or antimicrobial activity) | S. epidermidis and P. aeruginosa and C. albicans and MRSA and E. faecalis and C. jeikeium and C. jejuni |
| PF-200 (GIELKSLIMAQIERWRQA; Peptide with targeting and/or antimicrobial activity) | S. epidermidis and M. luteus and MRSA and E. faecalis and C. jeikeium |
| PF-134 (GKAMKRQDCSAL; Peptide with targeting and/or antimicrobial activity) | S. epidermidis; also recorded: C. jeikeium |
| PF-238 (RNAVVVTEATFPKYEEEITNYLNRRFGEDWSLKLEKCSVA; Peptide with targeting and/or antimicrobial activity) | S. mutans and S. epidermidis and E. coli and P. aeruginosa and C. albicans and MRSA and S. pneumoniae and E. faecalis |
| PF-221 (VFDNIDINF; Peptide with targeting and/or antimicrobial activity) | S. epidermidis; also recorded: M. luteus; also recorded: P. aeruginosa |

same assay, conditions: microorganism the targeting peptide binds; binding in aqueous buffers that varied with peptide solubility, preferably 1x PBS

| Substance | Target(s) |
| --- | --- |
| 1T-287 (KGYPLPFQYRLNNH; Peptide with targeting and/or antimicrobial activity) [Peptide 1T-287] | P. gingivalis; also recorded: T. denticola; also recorded: S. gordonii; also recorded: S. mitis; also recorded: S. mutans; also recorded: S. oralis; also recorded: S. salivarious; also recorded: S. sanguinis |
| 1T-261 (SFEKNKIENNLKIAQAYIYIKPKPRICQA; Peptide with targeting and/or antimicrobial activity) [Peptide 1T-261] | F. nucleatum; also recorded: S. mutans; also recorded: S. oralis; also recorded: S. sanguinis |
| TT-305 (ARNALNMRDVPVDAAIIGIIDGMDEE; Peptide with targeting and/or antimicrobial activity) | F. nucleatum |
| PF-062 (MKKKRINNDILGRMIYSSSIDKRNLYNLKYYE; Peptide with targeting and/or antimicrobial activity) | S. epidermidis and M. luteus and E. coli and P. aeruginosa and MRSA and S. pneumoniae and E. faecalis and C. jeikeium |
| 1T-266 (RAGTWLVVDEIR; Peptide with targeting and/or antimicrobial activity) [Peptide 1T-266] | S. sanguinis |
| PF-060 (HSSHL; Peptide with targeting and/or antimicrobial activity) | E. coli; also recorded: C. albicans; also recorded: C. jeikeium |

same assay, conditions: peptide binding in aqueous buffers that varied depending on peptide solubility; preferably 1x PBS

| Substance | Target(s) (microorganism bound by the targeting peptide) | Target(s) (microorganisms bound by the targeting peptide) |
| --- | --- | --- |
| PF-C160 (AASGFTYCASNGVWHPY; Peptide with targeting and/or antimicrobial activity) | F. nucleatum | – |
| PF-791 (IFLTTQNTDYSEHNAA; Peptide with targeting and/or antimicrobial activity) | S. mutans | – |
| PF-498 (MSEEEEVSEKVYNYLRRNEFFEVRKEEFSA; Peptide with targeting and/or antimicrobial activity) | – | S. mutans; also recorded: E. coli |
| PF-701 (PRGAQSGHG; Peptide with targeting and/or antimicrobial activity) | S. mutans | – |
| PF-494 (FTEPLRPLQAKGQIISIKPSTSSS; Peptide with targeting and/or antimicrobial activity) | – | S. mutans |
| PF-641 (SWKCHHLAIGGSWKCHHLAI; Peptide with targeting and/or antimicrobial activity) | S. epidermidis and M. luteus and E. coli and C. albicans and MRSA and E. faecalis and C. jeikeium and C. jejuni | – |
| LVLRICTDLFTFIKWTIKQRKS [PF-497] | – | S. mutans; also recorded: B. subtilis; also recorded: E. coli |
| PF-436 (KKHVLVGKQEKNG; Peptide with targeting and/or antimicrobial activity) | – | C. jeikeium |
| VYSFLYVLVIVRKLLSMKKRIERL [PF-499] | – | S. mutans; also recorded: E. coli |

same assay, conditions: peptide binding in aqueous buffers varied by peptide solubility; preferably 1x PBS

| Substance | Target(s) (microorganism bound by the targeting peptide) |
| --- | --- |
| 1T-60 (YLTSLGLDAAEQAQGLLTILKG; Peptide with targeting and/or antimicrobial activity) [Peptide 1T-60] | S. aureus; also recorded: S. epidermidis; also recorded: C. jeikeium; also recorded: C. striatum; also recorded: P. aeruginosa |
| 1T-105 (GEGLPPPVLHLPPPRMSGR; Peptide with targeting and/or antimicrobial activity) [Peptide 1T-105] | S. epidermidis; also recorded: S. gordonii; also recorded: S. mitis; also recorded: S. mutans; also recorded: S. oralis |
| 1T-41 (KRGSKIVIAIAVVLIVLAGVWVW; Peptide with targeting and/or antimicrobial activity) [Peptide 1T-41] | S. mutans; also recorded: S. aureus; also recorded: S. epidermidis; also recorded: C. jeikeium; also recorded: C. striatum; also recorded: P. aeruginosa |
| 1T-100 (LDPLEPRIAPPGDRSHQGAPACHRDPLRGRSARDAER; Peptide with targeting and/or antimicrobial activity) [Peptide 1T-100] | S. gordonii; also recorded: S. mitis; also recorded: S. mutans |
| 1T-44 (DPALADFAAGMRAQVRT; Peptide with targeting and/or antimicrobial activity) [Peptide 1T-44] | S. mutans; also recorded: S. aureus; also recorded: S. epidermidis; also recorded: C. jeikeium; also recorded: C. striatum; also recorded: P. aeruginosa |
| 1T-73 (GWWEELLHETILSKFKITKALELPIQL; Peptide with targeting and/or antimicrobial activity) [Peptide 1T-73] | S. pneumoniae |
| 1T-31 (NATGTDIGEVTLTLGRFS; Peptide with targeting and/or antimicrobial activity) [Peptide 1T-31] | S. mutans; also recorded: P. aeruginosa |
| 1T-17 (NNAIVYIS; Peptide with targeting and/or antimicrobial activity) [Peptide 1T-17] | S. mutans |
| 1T-46 (FSFKQRVMFRKEVERLR; Peptide with targeting and/or antimicrobial activity) [Peptide 1T-46] | S. aureus; also recorded: S. epidermidis; also recorded: C. jeikeium; also recorded: C. xerosis; also recorded: C. striatum; also recorded: P. aeruginosa |
